The assay deals with human renal carcinoma cell line 786-0. Briefly: Anti-proliferative effect on renal cell carcinoma 786-0 cell line (MTT assay). Type of assay: cell-based. Particulars: Homo sapiens, 786-0 cells, incubation 48 to 96 hours, serum free medium or 2% FCS. The protocol:
B-1. Determination of Anti-proliferative Effects of Renal Cell Carcinoma 786-0 Cell Line:
A defined number of cells of the human renal carcinoma cell line 786-0 were cultured in a 96 well micro titer plate in rich medium (2500 or 7.000 cells/well) and then incubated over night at 37° C./5% CO2. After 18 hours the seed medium was replaced by a serum free medium or medium with 2% FCS. The treatment began with measuring out the respective test substances in varying concentrations (10^−5 M to 10^−14 M). Incubation times of between 48 hours and 96 hours were chosen. The proliferation was determined by means of the MTT assay (ATCC, Manassas, Va., USA, catalogue no. 30-1010K). After completion of incubation period the MTT reagent was incubated with the cells for 4 hours before lysis occurred over night by measuring out the detergent. The created stain was detected at 570 nm. The proliferation of the cells, which were treated identically to the other cells but without the test substance was defined as the 100% value. The data obtained from this test represent triple determinations and at least two experiments had been carried out independently of each other.
On the technique in general: Formazan colour is commonly taken as a measure of viable cells.

In general, IC50 refers to the concentration needed to halve the response being measured. The low end stands for greater potency in that assay, the high end for weaker potency in that assay.

Square brackets hold non-standard residues; d marks the D form. Peptide text beside a SMILES is read from it. * marks the point of attachment. NMeVal(N-(CH2)3COOH) = CC(C)[C@@H](C(=O)*)N(C)CCCC(=O)O; Dolaproine = CO[C@@H]([C@@H]1CCCN1)[C@@H](C)C(=O)O; Dil = CC[C@H](C)[C@H](NC)[C@@H](CC(=O)O)OC; X4 = C1C2CC3CC1CC(CO*)(C2)C3; X6 = C1C2CC3CC1CC(O*)(C2)C3; NHBn = c1ccc(CN*)cc1; OBn = c1ccc(CO*)cc1

In the case of `CC[C@H](C)[C@@H]([C@@H](CC(=O)N1CCC[C@H]1[C@H](OC)[C@@H](C)C(=O)N[C@@H](Cc1ccccc1)C(=O)OC12CC3CC(CC(C3)C1)C2)OC)N(C)C(=O)[C@@H](NC(=O)[C@H](C(C)C)N(C)CCCC(=O)O)C(C)C` [Example 2, N-(3-carboxypropyl)-N-methyl-L-valyl-N-[(3R,4S,5S)-1-{(2S)-2-[(1R,2R)-3-{[(2S)-1-(adamantane-1-yloxyy)-1-oxo-3-phenylpropane-2-yl]amino}-1-methoxy-2-methyl-3-oxopropyl]pyrrolidin-1-yl}-3-methoxy-5-methyl-1-oxoheptan-4-yl]-N-methyl-L-valinamide] ({NMeVal(N-(CH2)3COOH)}-V[Dil][Dolaproine]F-X6), the midpoint of inhibition, the IC50, lay at 2.2 nM.
`CC[C@H](C)[C@@H]([C@@H](CC(=O)N1CCC[C@H]1[C@H](OC)[C@@H](C)C(=O)N[C@@H](Cc1ccccc1)C(=O)OCC12CC3CC(CC(C3)C1)C2)OC)N(C)C(=O)[C@@H](NC(=O)[C@H](C(C)C)N(C)CCCC(=O)O)C(C)C` [Example 3, N-(3-carboxypropyl)-N-methyl-L-valyl-N-[(3R,4S,5S)-1-{(2S)-2-[(1R,2R)-3-{[(2S)-1-(adamantane-1-ylmethoxy)-1-oxo-3-phenylpropane-2-yl]amino}-1-methoxy-2-methyl-3-oxopropyl]pyrrolidin-1-yl}-3-methoxy-5-methyl-1-oxoheptan-4-yl]-N-methyl-L-valinamide] ({NMeVal(N-(CH2)3COOH)}-V[Dil][Dolaproine]F-X4) yielded an IC50 of 0.7 nM.
`CC[C@H](C)[C@@H]([C@@H](CC(=O)N1CCC[C@H]1[C@H](OC)[C@@H](C)C(=O)N[C@@H](Cc1ccccc1)C(=O)OCc1ccccc1)OC)N(C)C(=O)[C@@H](NC(=O)[C@H](C(C)C)N(C)CCCC(=O)O)C(C)C` [Example 5, N-(3-carboxypropyl)-N-methyl-L-valyl-N-[(3R,4S,5S)-1-{(2S)-2-[(1R,2R)-3-{[(2S)-1-(benzyloxy)-1-oxo-3-phenylpropan-2-yl]amino}-1-methoxy-2-methyl-3-oxopropyl]pyrrolidin-1-yl}-3-methoxy-5-methyl-1-oxoheptan-4-yl]-N-methyl-L-valinamide] ({NMeVal(N-(CH2)3COOH)}-V[Dil][Dolaproine]F-OBn) returned an IC50 of 0.2 nM. This IC50 lies about 3.5-fold lower than the previous one.
In the case of `CC[C@H](C)[C@@H]([C@@H](CC(=O)N1CCC[C@H]1[C@H](OC)[C@@H](C)C(=O)N[C@@]1(C(=O)OCc2ccccc2)C[C@@H]1c1ccccc1)OC)N(C)C(=O)[C@@H](NC(=O)[C@H](C(C)C)N(C)CCCC(=O)O)C(C)C` [Example 10, N-(3-carboxypropyl)-N-methyl-L-valyl-N-[(3R,4S,5S)-1-{(2S)-2-[(1R,2R)-3-({(1S,2R)-1-[(benzyloxy)carbonyl]-2-phenylcyclopropyl}amino)-1-methoxy-2-methyl-3-oxopropyl]pyrrolidin-1-yl}-3-methoxy-5-methyl-1-oxoheptan-4-yl]-N-methyl-L-valinamide], half-maximal inhibition (IC50) required 81 nM.
To `CC[C@H](C)[C@@H]([C@@H](CC(=O)N1CCC[C@H]1[C@H](OC)[C@@H](C)C(=O)N[C@@H](Cc1ccccc1)C(=O)NCc1ccccc1)OC)N(C)C(=O)[C@@H](NC(=O)[C@H](C(C)C)N(C)CCCC(=O)O)C(C)C` [Example 15, N-(3-carboxypropyl)-N-methyl-L-valyl-N-[(3R,4S,5S)-1-{(2S)-2-[(1R,2R)-3-{[(2S)-1-(benzylamino)-1-oxo-3-phenylpropan-2-yl]amino}-1-methoxy-2-methyl-3-oxopropyl]pyrrolidin-1-yl}-3-methoxy-5-methyl-1-oxoheptan-4-yl]-N-methyl-L-valinamide] ({NMeVal(N-(CH2)3COOH)}-V[Dil][Dolaproine]F-NHBn) belongs 0.9 nM.

Values taken from US8987209B2, “N-carboxyalkyl-auristatin and the use thereof” (Seattle Genetics, Inc., priority 2010, dated 2015).
